In PubChem BioAssay AID322 (DTP/NCI, 2004) one finds T/C data, which are given here for 15 compounds.

Values joined by “and” are separate entries in the source; they are usually repeats but may differ in a detail not shown here. Equal entries are not always repeated. Inconclusive results and toxic doses are left out.

This assay deals with CD2F1 mice, P388/ADR leukemia ip, median survival T/C. In words: NCI In Vivo Anticancer Drug Screen. Data for tumor model P388 Leukemia resistant to Adriamycin; NSC 123127, Developed at Scr 08 (intraperitoneal) in CD2F1 (CDF1) mice. To be noted: endpoint: median survival time, higher = longer survival. The protocol:
The antitumor activity of compounds was measured in mice bearing transplantable tumors. Survival or tumor size were measured and the results are expressed as the measurement made in the treated group (T) divided by the measurement made in the vehicle treated control group (C). The tumor model used in this assay is P388 Leukemia resistant to Adriamycin; NSC 123127, Developed at Scr 08 (intraperitoneal) in CD2F1 (CDF1) mice

The mark [1] stands for this setting: dose: 6.25 mg/kg/injection, schedule: Q01DX005 (ip), vehicle: saline with Tween-80.
The mark [2] stands for this setting: dose: 12.5 mg/kg/injection, schedule: Q01DX005 (ip), vehicle: saline with Tween-80.
[3] abbreviates: dose: 100.0 mg/kg/injection, schedule: Q01DX005 (ip), vehicle: saline with Tween-80.
Setting [4] is: dose: 25.0 mg/kg/injection, schedule: Q01DX005 (ip), vehicle: saline with Tween-80.
[5] abbreviates: dose: 50.0 mg/kg/injection, schedule: Q01DX005 (ip), vehicle: saline with Tween-80.

For the compound `O=C(Nc1ccccc1)c1c(O)[nH]c(=S)[nH]c1=O`, the T/C reads like this: (dose: 30.0 mg/kg/injection, schedule: Q01DX009 (ip), vehicle: saline with Tween-80) 173 % of control; (dose: 44.0 mg/kg/injection, schedule: Q01DX009 (ip), vehicle: saline with Tween-80) 181 % of control; (dose: 67.0 mg/kg/injection, schedule: Q01DX009 (ip), vehicle: saline with Tween-80) 160 % of control; (dose: 75.0 mg/kg/injection, schedule: Q01DX009 (ip), vehicle: saline with Tween-80) 170 % of control; (dose: 100.0 mg/kg/injection, schedule: Q01DX009 (ip), vehicle: saline with Tween-80) 173 % of control and 181 % of control; (dose: 125.0 mg/kg/injection, schedule: Q01DX009 (ip), vehicle: saline with Tween-80) 195 % of control. Besides, the T/C (dose: 150.0 mg/kg/injection, schedule: Q01DX009 (ip), vehicle: saline with Tween-80) was 197 % of control.
In the case of `Nc1nc(F)nc2c1ncn2C1OC(COP(=O)(O)O)C(O)C1O` (stereo not given), the T/C is 219 % of control and 239 % of control (dose: 60.0 mg/kg/injection, schedule: Q01DX009 (ip), vehicle: saline); 309 % of control and 429 % of control (dose: 90.0 mg/kg/injection, schedule: Q01DX009 (ip), vehicle: saline); 309 % of control and 445 % of control (dose: 134.0 mg/kg/injection, schedule: Q01DX009 (ip), vehicle: saline); 309 % of control and 394 % of control (dose: 200.0 mg/kg/injection, schedule: Q01DX009 (ip), vehicle: saline); 108 % of control (dose: 250.0 mg/kg/injection, schedule: Q01DX009 (ip), vehicle: saline).
For the compound `COc1ccc(CCN(C)CCCC(C#N)(c2ccc(OC)c(OC)c2)C(C)C)cc1OC` (stereo not given), the T/C runs as follows: (dose: 8.0 mg/kg/injection, schedule: Q03HX006 (ip), vehicle: saline) 110 % of control; (dose: 16.0 mg/kg/injection, schedule: Q03HX006 (ip), vehicle: saline) 104 % of control; (dose: 32.0 mg/kg/injection, schedule: Q03HX006 (ip), vehicle: saline) 103 % of control.
Consider `COC(=O)C[C@](O)(CCCC(C)(C)O)C(=O)O[C@@H]1C(OC)=C[C@]23CCCN2CCc2cc4c(cc2[C@H]13)OCO4`, for which the T/C was 104 % of control and 109 % of control (dose: 0.87 mg/kg/injection, schedule: Q01DX009 (ip), vehicle: acid diluted with saline); 99 % of control (dose: 1.3 mg/kg/injection, schedule: Q01DX009 (ip), vehicle: acid diluted with saline).
On to `OC(CBr)C(O)C(O)C(O)CBr` (stereo not given), for which the T/C (dose: 30.0 mg/kg/injection, schedule: Q01DX009 (ip), vehicle: Klucel (hydroxypropylcellulose) (HPC)) was 162 % of control.
`N[C@@H](Cc1ccc(N(CCCl)CCCl)cc1)C(=O)O`: the T/C is, setting by setting: (dose: 0.5 mg/kg/injection, schedule: Q01DX005 (ip), vehicle: saline) 171 % of control and 202 % of control; (dose: 1.0 mg/kg/injection, schedule: Q01DX005 (ip), vehicle: saline) 200 % of control and 202 % of control; (dose: 1.62 mg/kg/injection, schedule: Q04DX003 (ip), vehicle: water) 207 % of control; (dose: 2.0 mg/kg/injection, schedule: Q01DX005 (ip), vehicle: saline) 202 % of control and 297 % of control; (dose: 2.7 mg/kg/injection, schedule: Q04DX003 (ip), vehicle: water) 215 % of control; (dose: 4.0 mg/kg/injection, schedule: Q01DX005 (ip), vehicle: saline) 202 % of control and 297 % of control. The T/C was 290 % of control (dose: 4.5 mg/kg/injection, schedule: Q04DX003 (ip), vehicle: water); 109 % of control (dose: 7.5 mg/kg/injection, schedule: Q04DX003 (ip), vehicle: water); 297 % of control (dose: 8.0 mg/kg/injection, schedule: Q01DX005 (ip), vehicle: saline); 95 % of control (dose: 12.5 mg/kg/injection, schedule: Q04DX003 (ip), vehicle: water).
Regarding `O=[N+]([O-])c1ccc([I+]c2ccccc2)cc1`, the T/C was 124 % of control under setting [1], 124 % of control under setting [2] and 155 % of control under setting [3].
`COc1cccc(Sc2ccc([N+](=O)[O-])c3no[n+]([O-])c23)c1`: the T/C (dose: 1.56 mg/kg/injection, schedule: Q01DX005 (ip), vehicle: saline with Tween-80) is 98 % of control; the T/C (dose: 3.12 mg/kg/injection, schedule: Q01DX005 (ip), vehicle: saline with Tween-80) is 100 % of control; the T/C under setting [1] was 107 % of control; the T/C under setting [2] was 110 % of control; the T/C under setting [4] was 101 % of control.
Take `CC[C@]1(O)C[C@H]2CN(CCc3c([nH]c4ccccc34)[C@@](C(=O)OC)(c3cc4c(cc3OC)N(C=O)[C@H]3[C@@](O)(C(=O)OC)[C@H](OC(C)=O)[C@]5(CC)C=CCN6CC[C@]43[C@@H]65)C2)C1`: the T/C is 109 % of control (dose: 0.43 mg/kg/injection, schedule: Q04DX002 (ip), vehicle: saline); 111 % of control (dose: 0.72 mg/kg/injection, schedule: Q04DX002 (ip), vehicle: saline); 109 % of control (dose: 1.2 mg/kg/injection, schedule: Q04DX002 (ip), vehicle: saline); 103 % of control (dose: 2.0 mg/kg/injection, schedule: Q04DX002 (ip), vehicle: saline); 115 % of control (dose: 3.33 mg/kg/injection, schedule: Q04DX002 (ip), vehicle: saline).
`C[C@H](N)C(=O)N[C@@H]1[C@H]2C(=C(O)C[C@@H](O)[C@@H]2O)C(=O)O[C@@H]1C`: the T/C reads like this: (dose: 150.0 mg/kg/injection, schedule: Q01DX005 (ip), vehicle: saline) 100 % of control and 105 % of control; (dose: 300.0 mg/kg/injection, schedule: Q01DX005 (ip), vehicle: saline) 100 % of control and 104 % of control; (dose: 600.0 mg/kg/injection, schedule: Q01DX005 (ip), vehicle: saline) 98 % of control and 105 % of control; (dose: 1200.0 mg/kg/injection, schedule: Q01DX005 (ip), vehicle: saline) 97 % of control and 103 % of control.
For the compound `COc1cc2c(c3c1c(=O)c1ccccc1n3C)C=CC(C)(C)O2`, the T/C by setting is: under setting [2], 115 % of control; under setting [4], 87 % of control; under setting [5], 90 % of control.
In the case of `CC[C@]1(O)C[C@H]2CN(CCc3c([nH]c4ccccc34)[C@@](C(=O)OC)(c3cc4c(cc3OC)N(C)[C@H]3[C@@](O)(C(=O)OC)[C@H](OC(C)=O)[C@]5(CC)C=CCN6CC[C@]43[C@@H]65)C2)C1`, the T/C (dose: 0.5 mg/kg/injection, schedule: Q04DX003 (ip), vehicle: saline) was 101 % of control; the T/C (dose: 1.0 mg/kg/injection, schedule: Q04DX003 (ip), vehicle: saline) is 100 % of control; the T/C (dose: 2.0 mg/kg/injection, schedule: Q04DX003 (ip), vehicle: saline) was 100 % of control; the T/C (dose: 4.0 mg/kg/injection, schedule: Q04DX003 (ip), vehicle: saline) is 83 % of control; the T/C (dose: 8.0 mg/kg/injection, schedule: Q04DX003 (ip), vehicle: saline) was 57 % of control.
Take `CN=C(NC)c1ccc(NC(=O)/C=C\c2ccc(/C=C/C(=O)Nc3ccc(C(=NC)NC)cc3)cc2)cc1`: the T/C is 107 % of control (dose: 1.56 mg/kg/injection, schedule: Q01DX005 (ip), vehicle: Klucel (hydroxypropylcellulose) (HPC)); 109 % of control (dose: 3.12 mg/kg/injection, schedule: Q01DX005 (ip), vehicle: Klucel (hydroxypropylcellulose) (HPC)); 116 % of control (dose: 6.25 mg/kg/injection, schedule: Q01DX005 (ip), vehicle: Klucel (hydroxypropylcellulose) (HPC)).
Turning to `Cc1cc(O)c2c(c1O)C(=O)C13C(=C2O)C(=O)C2C(O)C1C1C(O)C3C(=O)C3=C(O)c4c(O)cc(C)c(O)c4C(=O)C321` (stereo not given), the T/C is 101 % of control (dose: 0.75 mg/kg/injection, schedule: Q01DX005 (ip), vehicle: saline with Tween-80); 117 % of control (dose: 1.5 mg/kg/injection, schedule: Q01DX005 (ip), vehicle: saline with Tween-80); 122 % of control (dose: 3.0 mg/kg/injection, schedule: Q01DX005 (ip), vehicle: saline with Tween-80); 123 % of control (dose: 6.0 mg/kg/injection, schedule: Q01DX005 (ip), vehicle: saline with Tween-80).
With `Nc1ccc2ccc(NS(=O)(=O)N3CCCCC3)cc2c1`, the T/C runs as follows: under setting [4], 111 % of control; under setting [5], 107 % of control; under setting [3], 106 % of control; (dose: 200.0 mg/kg/injection, schedule: Q01DX005 (ip), vehicle: saline with Tween-80) 101 % of control; (dose: 400.0 mg/kg/injection, schedule: Q01DX005 (ip), vehicle: saline with Tween-80) 99 % of control.
